Reference: PubChem BioAssay AID330 (DTP/NCI, 2004)
Several values for one entry are separate records, joined by “and”; a condition that tells them apart may be missing. Equal entries are not always repeated. Toxic doses and inconclusive results are not listed. How the source made its calls: active means survival T/C of 150% or more; inactive means T/C below 125% in these data.

System: P388 leukemia ip, CD2F1 mice, survival T/C
Test: NCI In Vivo Anticancer Drug Screen. Data for tumor model P388 Leukemia (intraperitoneal) in CD2F1 (CDF1) mice
Details: endpoint: median survival time, higher = longer survival
Outline: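 Mice carrying the transplanted tumor received test compound or vehicle. Survival was recorded in each group, and the value is the treated-group measurement divided by that of the vehicle-treated control group.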

[1] = dose: 60.0 mg/kg/injection, schedule: Q01DX005 (ip), vehicle: saline with Tween-80
[2] = dose: 120.0 mg/kg/injection, schedule: Q01DX005 (ip), vehicle: saline with Tween-80
[3] = dose: 240.0 mg/kg/injection, schedule: Q01DX005 (ip), vehicle: saline with Tween-80
[4] = dose: 12.5 mg/kg/injection, schedule: Q01DX005 (ip), vehicle: Klucel (hydroxypropylcellulose) (HPC)
[5] = dose: 25.0 mg/kg/injection, schedule: Q01DX005 (ip), vehicle: Klucel (hydroxypropylcellulose) (HPC)
[6] = dose: 50.0 mg/kg/injection, schedule: Q01DX005 (ip), vehicle: Klucel (hydroxypropylcellulose) (HPC)
[7] = dose: 50.0 mg/kg/injection, schedule: Q01DX009 (ip), vehicle: saline with Tween-80
[8] = dose: 100.0 mg/kg/injection, schedule: Q01DX009 (ip), vehicle: saline with Tween-80
[9] = dose: 200.0 mg/kg/injection, schedule: Q01DX009 (ip), vehicle: saline with Tween-80

Measured: T/C

COc1cccc(CN2C(=O)NC(C)(C)C2O)c1 (stereo not drawn)
inactive: [1] 99 % of control | [2] 101 % of control | [3] 101 % of control

COc1ccc2c3c([nH]c2c1)[C@H](CC(C)(C)O)N1C(=O)[C@@H]2CCCN2C(=O)[C@]1(O)[C@H]3O
inactive: dose: 6.25 mg/kg/injection, schedule: Q01DX005 (ip), vehicle: Klucel (hydroxypropylcellulose) (HPC) 100 % of control | [4] 105 % of control | [5] 108 % of control | [6] 116 % of control

C=C1C(=O)C23CCC4C5(C)CCCC4(C4OCCN4C5)C2CCC1C3 (stereo not drawn)
inactive: dose: 1.0 mg/kg/injection, schedule: Q01DX009 (ip), vehicle: Klucel (hydroxypropylcellulose) (HPC) 104 % of control | dose: 2.0 mg/kg/injection, schedule: Q01DX009 (ip), vehicle: Klucel (hydroxypropylcellulose) (HPC) 107 % of control | dose: 4.0 mg/kg/injection, schedule: Q01DX009 (ip), vehicle: Klucel (hydroxypropylcellulose) (HPC) 95 % of control | dose: 8.0 mg/kg/injection, schedule: Q01DX009 (ip), vehicle: Klucel (hydroxypropylcellulose) (HPC) 95 % of control

CC(=O)C[n+]1ccccc1Cc1ccccc1
inactive: dose: 25.0 mg/kg/injection, schedule: Q01DX005 (ip), vehicle: saline with Tween-80 99 % of control | dose: 50.0 mg/kg/injection, schedule: Q01DX005 (ip), vehicle: saline with Tween-80 100 % of control

CC1CCC(c2ccoc2)N2C1CCC(C)(Sc1ccccc1)C2O (stereo not drawn)
inactive: dose: 5.5 mg/kg/injection, schedule: Q01DX004 (ip), vehicle: DMSO 95 % of control | dose: 11.0 mg/kg/injection, schedule: Q01DX004 (ip), vehicle: DMSO 115 % of control | dose: 22.0 mg/kg/injection, schedule: Q01DX004 (ip), vehicle: DMSO 113 % of control | dose: 25.0 mg/kg/injection, schedule: Q01DX001 (ip), vehicle: other 103 % of control | dose: 44.0 mg/kg/injection, schedule: Q01DX004 (ip), vehicle: DMSO 105 % of control | dose: 50.0 mg/kg/injection, schedule: Q01DX001 (ip), vehicle: other 98 % of control | dose: 100.0 mg/kg/injection, schedule: Q01DX001 (ip), vehicle: other 98 % of control

Cc1nnc(NN=O)nc1C
inactive: dose: 3.12 mg/kg/injection, schedule: Q01DX009 (ip), vehicle: water 96 % of control | dose: 6.25 mg/kg/injection, schedule: Q01DX009 (ip), vehicle: water 100 % of control | dose: 12.5 mg/kg/injection, schedule: Q01DX009 (ip), vehicle: water 105 % of control and 98 % of control | dose: 25.0 mg/kg/injection, schedule: Q01DX009 (ip), vehicle: water 104 % of control and 106 % of control | dose: 50.0 mg/kg/injection, schedule: Q01DX009 (ip), vehicle: water 99 % of control and 101 % of control and 105 % of control | dose: 100.0 mg/kg/injection, schedule: Q01DX009 (ip), vehicle: water 96 % of control

CC(C)C/C=C\CCCCCCCCCC(=O)NCC(=O)O
inactive: dose: 12.5 mg/kg/injection, schedule: Q01DX009 (ip), vehicle: distilled water + Tween-80 93 % of control | dose: 25.0 mg/kg/injection, schedule: Q01DX009 (ip), vehicle: distilled water + Tween-80 92 % of control | dose: 50.0 mg/kg/injection, schedule: Q01DX009 (ip), vehicle: distilled water + Tween-80 95 % of control | dose: 100.0 mg/kg/injection, schedule: Q01DX009 (ip), vehicle: distilled water + Tween-80 93 % of control | dose: 200.0 mg/kg/injection, schedule: Q01DX009 (ip), vehicle: distilled water + Tween-80 100 % of control

CCCCCNc1ccc(NCCCCC)c2c1C(=O)c1ccccc1C2=O
inactive: dose: 50.0 mg/kg/injection, schedule: Q01DX009 (ip), vehicle: saline 98 % of control | dose: 100.0 mg/kg/injection, schedule: Q01DX009 (ip), vehicle: saline 99 % of control | dose: 200.0 mg/kg/injection, schedule: Q01DX009 (ip), vehicle: saline 89 % of control

COC(=O)c1cc(/C=C/c2ccccc2)[nH]c(=O)c1C#N
inactive: [1] 106 % of control | [2] 105 % of control | [3] 98 % of control

CC(=O)OCC1OC(n2nc(-c3ccccc3)c(=O)n(-c3ccccc3)c2=O)C(OC(C)=O)C(OC(C)=O)C1OC(C)=O (stereo not drawn)
inactive: dose: 100.0 mg/kg/injection, schedule: Q04DX003 (ip), vehicle: saline with Tween-80 110 % of control | dose: 200.0 mg/kg/injection, schedule: Q04DX003 (ip), vehicle: saline with Tween-80 111 % of control

CCC1C2C(C(C)c3c[nH]c4ccccc34)NC(=O)C23C(=O)/C=C\C(=O)C(O)/C(C)=C/C(C)C/C=C/C3C2OC12C (stereo not drawn)
inactive: dose: 0.38 mg/kg/injection, schedule: Q01DX005 (ip), vehicle: Klucel (hydroxypropylcellulose) (HPC) 105 % of control and 108 % of control | dose: 0.75 mg/kg/injection, schedule: Q01DX005 (ip), vehicle: Klucel (hydroxypropylcellulose) (HPC) 110 % of control and 118 % of control | dose: 1.5 mg/kg/injection, schedule: Q01DX005 (ip), vehicle: Klucel (hydroxypropylcellulose) (HPC) 106 % of control and 122 % of control

CC1=CC[C@@H]2[C@@H](CC[C@@]2(C)O)C(C)(C)[C@H]1CC[C@@H]1[C@@]2(C)CCC(=O)C(C)(C)O[C@@H]2CC[C@]1(C)O
inactive: dose: 7.5 mg/kg/injection, schedule: Q01DX005 (ip), vehicle: saline + Tween-80 + alcohol 92 % of control | dose: 15.0 mg/kg/injection, schedule: Q01DX005 (ip), vehicle: saline + Tween-80 + alcohol 98 % of control | dose: 30.0 mg/kg/injection, schedule: Q01DX005 (ip), vehicle: saline + Tween-80 + alcohol 97 % of control | dose: 60.0 mg/kg/injection, schedule: Q01DX005 (ip), vehicle: saline + Tween-80 + alcohol 103 % of control

CN1CCC(C(=O)O)(c2ccccc2)CC1
inactive: dose: 9.4 mg/kg/injection, schedule: Q01DX009 (ip), vehicle: saline with Tween-80 100 % of control | dose: 18.8 mg/kg/injection, schedule: Q01DX009 (ip), vehicle: saline with Tween-80 98 % of control | dose: 37.5 mg/kg/injection, schedule: Q01DX009 (ip), vehicle: saline with Tween-80 97 % of control | dose: 75.0 mg/kg/injection, schedule: Q01DX009 (ip), vehicle: saline with Tween-80 111 % of control

c1cn(C23CC4CC(CC(C4)C2)C3)cn1
inactive: dose: 25.0 mg/kg/injection, schedule: Q01DX001 (ip), vehicle: Klucel (hydroxypropylcellulose) (HPC) 97 % of control

CC(C)(C)[Si](C)(C)O[C@@H]1C=C(S(=O)(=O)c2ccccc2)[C@H](N2CCSCC2)C1
inactive: [4] 101 % of control | [5] 97 % of control | [6] 92 % of control

Cn1c(=O)c2[nH]c([N+](=O)[O-])nc2n(C)c1=O
inactive: dose: 100.0 mg/kg/injection, schedule: Q04DX003 (ip), vehicle: saline 96 % of control | dose: 200.0 mg/kg/injection, schedule: Q04DX003 (ip), vehicle: saline 100 % of control | dose: 400.0 mg/kg/injection, schedule: Q04DX003 (ip), vehicle: saline 100 % of control

CN(C)c1ccc(N=Nc2ccc3ccc4c(N=Nc5ccc(N(C)C)cc5)ccc5ccc2c3c54)cc1
inactive: dose: 50.0 mg/kg/injection, schedule: Q01DX009 (ip), vehicle: Klucel (hydroxypropylcellulose) (HPC) 106 % of control | dose: 100.0 mg/kg/injection, schedule: Q01DX009 (ip), vehicle: Klucel (hydroxypropylcellulose) (HPC) 103 % of control | dose: 200.0 mg/kg/injection, schedule: Q01DX009 (ip), vehicle: Klucel (hydroxypropylcellulose) (HPC) 103 % of control

Cc1nc(C(Cl)(Cl)Cl)[nH]c(=O)c1SCCO
inactive: dose: 50.0 mg/kg/injection, schedule: Q01DX005 (ip), vehicle: distilled water + alcohol 101 % of control and 108 % of control | dose: 100.0 mg/kg/injection, schedule: Q01DX005 (ip), vehicle: distilled water + alcohol 105 % of control and 120 % of control | dose: 200.0 mg/kg/injection, schedule: Q01DX005 (ip), vehicle: distilled water + alcohol 114 % of control

COc1ccc(OC)c(NC(=O)N2CCCC2)c1
inactive: [7] 100 % of control | [8] 96 % of control | [9] 96 % of control

NC(=S)C1OC(COC(=O)c2ccccc2)C(OC(=O)c2ccccc2)C1OC(=O)c1ccccc1 (stereo not drawn)
inactive: [7] 96 % of control | [8] 94 % of control | [9] 102 % of control

C#CCN1CC(OC)Nc2c(O)cccc2C1=O (stereo not drawn) (tested in a mixture with another compound)
inactive: dose: 2.5 mg/kg/injection, schedule: Q01DX005 (ip), vehicle: water 113 % of control | dose: 5.0 mg/kg/injection, schedule: Q01DX005 (ip), vehicle: water 110 % of control and 113 % of control | dose: 10.0 mg/kg/injection, schedule: Q01DX005 (ip), vehicle: water 123 % of control | dose: 20.0 mg/kg/injection, schedule: Q01DX005 (ip), vehicle: water 119 % of control and 123 % of control
